Results taken from patent publication US6900187B2, “TRPM-2 antisense therapy using an oligonucleotide having 2′-O-(2-methoxy)ethyl modifications” (The University of British Columbia, priority 1999, dated 2005).
Read-outs that look alike come from different tables or passages of the source.

How the values were obtained:
[1] = system: human RCC CaKi-2 cells; experiment: MTT assay of CaKi-2 cell growth, ODN plus taxol; format: cell-based; details: CAKI-2, CaKi-2 cells
Protocol: (§1) Immunohistochemical staining was used to characterize TRPM-2 expression in 17 RCC and normal kidney tissues obtained from radical nephrectomy specimens. TRPM-2 expression in human renal cancer cell lines ACHN, CaKi-1 and CaKi-2 was evaluated by Northern and Western blot analyses. Northern blot analysis was used to assess changes in TRPM-2 mRNA expression after antisense TRPM-2 ODN treatment. The effects of combined antisense TRPM-2 ODN and taxol treatment on CaKi-2 cell growth was examined using a MTT assay (Zellweger et al., Neoplasia 3: 360-367 (2001)).

[2] = system: human TRPM-2 mRNA; experiment: TRPM-2 mRNA expression in PC-3 and TRPM-2 transfected LNCaP cells; format: cell-based
Protocol: The sequences of these ten ODNs are set forth in the attached Sequence Listing as Seq. ID. Nos. 3-12. The ten human antisense ODNs were evaluated using TRPM-2 transfected LNCaP cells and human prostate cancer PC-3 cells for their ability to inhibit expression of TRPM-2 mRNA. […] ID Nos. 4, 5, and 12. Sequence ID No. 5 corresponds to the sequence used by Sensibar, et al. that produced inhibition of TRPM-2 expression in LNCaP cells, and is complementary to the first 21 bases of the TRPM-2 mRNA. […] ID No. 4. Common to all of the effective sequences is an overlap with either the initiation or termination sites of the TRPM-2 mRNA. Thus, it was shown that inhibition of expression of TRPM-2 may be accomplished by the administration of antisense ODNs, particularly antisense ODNs which are complementary to a region of the TRPM-2 mRNA spanning either the translation initiation site or the termination site.
To identify appropriate antisense TRPM-2 ODN sequences for use in human therapy, antisense ODN sequences directed against 10 different sites of the human TRPM-2 gene (FIG. 2, Seq. ID Nos. 3-12) were synthesized and tested for their ability to decrease TRPM-2 gene expression in human prostate cancer PC-3 and transfected LNCaP cells that overexpress TRPM-2 using the same treatment protocol described in Example 2. As shown, sequences 4, 5 and 12 are active for reduction of TRPM-2 expression. These three sequences overlap or are immediately adjacent to the translation initiation or termination sites.

[3] = system: Shionogi cells; experiment: Viability of Shionogi cells treated with chemotherapy agent plus ODN; format: cell-based, mouse; details: antisense Bcl-2 ODN added to antisense TRPM-2 ODN and taxol
Protocol: Shionogi cells maintained in vitro were treated with varying amounts of taxol alone or in combination with 500 nM antisense TRPM-2 ODN (Seq. ID. No. 1) or the mismatch control (Seq. ID No. 2). The cells were treated twice, as described in Example 2, and the percentage of viable cells remaining was determined. As shown, the inclusion of antisense TRPM-2 ODN shifted the dose-response curve to the left, lowering the IC50 by a factor of 5 to 10.
The experiment of Example 3 was repeated, with the addition of antisense Bcl-2 ODN (Seq. ID. No. 13) or a mismatch Bcl-2 ODN (Seq. ID. No. 14) in various combinations with antisense/mismatch TRPM-2 ODN and taxol. […] Thus, the targeting of additional anti-apoptotic agents appears to provide therapeutic benefits.

[4] = system: TRPM-2; details: cited from earlier work
[5] = system: TRPM-2 mRNA; experiment: Northern blot of TRPM-2 mRNA in Shionogi tumor cells in vitro; format: cell-based, mouse; details: varying ODN concentrations with lipofectin, treated twice over two days
Protocol: The sequence selectivity of the antisense TRPM-2 ODN (Seq. ID. No. 1) was confirmed by comparing expression levels of TRPM-2 mRNA in Shionogi tumor cells maintained in vitro, after treatment with the varying levels of antisense TRPM-2 ODN or a mismatch control (Seq. ID. No. 2). To facilitate uptake of the ODNs into the cells, the ODNs were formulated in a cationic lipid carrier (Lipofectin, (Life Technologies, Inc.)). Cells were treated twice over a period of two days using the following protocol. Cells were preincubated for 20 minutes with 4 μg/ml of lipofectin in serum free OPTI-MEM (Life Technologies, Inc.) and then incubated with the medium containing the selected concentration of ODN and lipofectin for four hours. The medium was then replaced with the standard culture medium.
The amount of TRPM-2 mRNA in the cells was evaluated using Northern blot analysis. […] In contrast, TRPM-2 mRNA levels were not affected by the mismatch ODN (Seq. ID. No. 2) at any of the employed concentrations. Thus, the affect of antisense TRPM-2 ODN is apparently sequence specific.

[6] = system: TRPM-2 mRNA; experiment: Northern blot of TRPM-2 expression in CaKi-2 cells; format: cell-based, human
Protocol: as §1

[7] = Side effects in Shionogi tumor mice; format: in vivo, mouse; details: 12.5 mg/kg i.p. once daily for 40 days
Protocol: Mice were randomly selected for treatment with murine phosphorothioate antisense TRPM-2 ODN (Seq. ID No. 1) or a mismatch control (Seq. ID No. 2) which is two bases different in sequence from the antisense TRPM-2 ODN. Each experimental group consisted of 7 mice. One day after castration, 12.5 mg/kg of antisense TRPM-2 or mismatch control ODN dissolved in phosphate buffered saline were injected intraperitoneally once daily into each mouse of 40 days. Tumor volume was measured twice weekly, and calculated by the formula length×width×depth×0.5236. Gleave et al., Cancer Res. 52: 1598-1605 (1992). Data points were reported as average tumor volumes±standard deviation.

Compound: CC(=O)O[C@H]1C(=O)[C@@]2(C)[C@H]([C@H](OC(=O)c3ccccc3)[C@]3(O)C[C@H](OC(=O)[C@H](O)[C@@H](NC(=O)c4ccccc4)c4ccccc4)C(C)=C1C3(C)C)[C@]1(OC(C)=O)CO[C@@H]1C[C@@H]2O [taxol]
- IC50 ([1]; with antisense TRPM-2 ODN): 50 nM
- IC50 ([1]; with mismatch control ODN): 500 nM

Compound: Seq. ID No. 5: human antisense phosphorothioate ODN complementary to the first 21 bases of the TRPM-2 mRNA (ATTGTCTGAGACCGTCTGGTC; DNA, all phosphorothioate, methylation of C not given here)
- inhibition of TRPM-2 mRNA expression [2]: best results
- inhibition of TRPM-2 mRNA expression ([2]; listed as 5): active

Compound: Seq. ID No. 12: human antisense phosphorothioate ODN overlapping or adjacent to translation initiation or termination site of TRPM-2 mRNA (GCTGGGCGGAGTTGGGGGCCT; DNA, all phosphorothioate, methylation of C not given here)
- inhibition of TRPM-2 mRNA expression [2]: best results
- inhibition of TRPM-2 mRNA expression ([2]; listed as 12): active

Compound: antisense Bcl-2 ODN: antisense Bcl-2 ODN (Seq. ID. No. 13) (antisense TCTCCCGGCTTGCGCCAT; listed as DNA, chemistry not given here)
- cytotoxic effects of taxol in combination with antisense TRPM-2 ODN and antisense Bcl-2 ODN [3]: further enhanced the cytotoxic effects of taxol

Compound: antisense molecule corresponding to the bases 1-21 of the TRPM-2 sequence: antisense molecule of Sensibar et al.; Seq. ID No. 5 corresponds to its sequence (antisense ATTGTCTGAGACCGTCTGGTC; listed as DNA, chemistry not given here)
- apoptotic cell death ([4]; LNCaP cells exposed to TNFα): increase in apoptotic cell death
- expression of TRPM-2 ([4]; transfected LNCaP cells): substantial reduction in expression of TRPM-2

Compound: mismatch control ODN: mismatch control two bases different in sequence from the antisense TRPM-2 ODN (DNA GCACAGCAGCAGGATCTTCAT; DNA, backbone and methylation of C not given here)
- TRPM-2 mRNA levels in Shionogi cells [5]: not affected
- TRPM-2 expression in CaKi-2 cells [6]: not
- side effects [7]: No side effects
